From ChEMBL document CHEMBL1201862, “PubChem BioAssay data set” (2004)
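Compound exposure: 48 hours, 5 concentrations, 96-well plates. Abbreviation: GI50, concentration required for 50% inhibition of growth.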 Activity calls are given as the source filed them. No stated cut-off is given here; in the data, active = GI50 up to about 1.1 µM and inactive = higher.

How the values were obtained:
Assay in all cases: NCI anticancer screen, dose series, 48 h
786-0 = test system: 786-0
A498 = test system: A498
A549 = test system: A549
ACHN = test system: ACHN
CAKI-1 = test system: CAKI-1
DMS-114 = test system: DMS-114
DMS-273 = test system: DMS-273
EKVX = test system: EKVX
HCC 2998 = test system: HCC 2998
HCT-116 = test system: HCT-116
HCT-15 = test system: HCT-15
HL-60 = test system: HL-60
HOP-62 = test system: HOP-62
HT-29 = test system: HT-29
IGROV-1 = test system: IGROV-1
K562 = test system: K562
KM-20L2 = test system: KM-20L2
KM12 = test system: KM12
LOX IMVI = test system: LOX IMVI
LXFL 529 = test system: LXFL 529
M14 = test system: M14
M19-MEL = test system: M19-MEL
MOLT-4 = test system: MOLT-4
Malme-3M = test system: Malme-3M
NCI-H226 = test system: NCI-H226
NCI-H460 = test system: NCI-H460
NCI-H522 = test system: NCI-H522
OVCAR-3 = test system: OVCAR-3
OVCAR-4 = test system: OVCAR-4
OVCAR-5 = test system: OVCAR-5
OVCAR-8 = test system: OVCAR-8
RPMI-8226 = test system: RPMI-8226
SF-268 = test system: SF-268
SF-295 = test system: SF-295
SF-539 = test system: SF-539
SK-MEL-28 = test system: SK-MEL-28
SK-MEL-2 = test system: SK-MEL-2
SK-MEL-5 = test system: SK-MEL-5
SK-OV-3 = test system: SK-OV-3
SN12C = test system: SN12C
SNB-19 = test system: SNB-19
SNB-75 = test system: SNB-75
SR = test system: SR
SW-620 = test system: SW-620
U-251 = test system: U-251
UACC-257 = test system: UACC-257
UACC-62 = test system: UACC-62
UO-31 = test system: UO-31
XF498 = test system: XF498

N#CCCN(CCC#N)c1ccc(/C=C2\N=C(c3cc([N+](=O)[O-])ccc3Cl)OC2=O)cc1
GI50 (786-0): 34.4 µM (inactive)
GI50 (A498): > 100 µM (inactive)
GI50 (A549): > 100 µM (inactive)
GI50 (ACHN): > 100 µM (inactive)
GI50 (CAKI-1): > 100 µM (inactive)
GI50 (DMS-114): 25.4 µM (inactive)
GI50 (DMS-273): > 100 µM (inactive)
GI50 (EKVX): > 100 µM (inactive)
GI50 (HCC 2998): 21.6 µM (inactive)
GI50 (HCT-116): > 100 µM (inactive)
GI50 (HCT-15): 53.2 µM
GI50 (HL-60): 38.1 µM (inactive)
GI50 (HOP-62): 35.4 µM (inactive)
GI50 (HT-29): > 100 µM (inactive)
GI50 (IGROV-1): > 100 µM (inactive)
GI50 (K562): 18.2 µM (inactive)
GI50 (KM-20L2): > 100 µM (inactive)
GI50 (KM12): 14.7 µM (inactive)
GI50 (LOX IMVI): 23.7 µM (inactive)
GI50 (LXFL 529): 18.1 µM (inactive)
GI50 (M14): 35.6 µM (inactive)
GI50 (M19-MEL): 20.5 µM (inactive)
GI50 (MOLT-4): 24.2 µM (inactive)
GI50 (Malme-3M): > 100 µM (inactive)
GI50 (NCI-H226): 22.4 µM (inactive)
GI50 (NCI-H460): 67.5 µM (inactive)
GI50 (NCI-H522): 14 µM (inactive)
GI50 (OVCAR-3): 27.8 µM (inactive)
GI50 (OVCAR-4): 30 µM (inactive)
GI50 (OVCAR-5): > 100 µM (inactive)
GI50 (OVCAR-8): 19.1 µM (inactive)
GI50 (RPMI-8226): 88.7 µM (inactive)
GI50 (SF-268): 45.1 µM (inactive)
GI50 (SF-295): 44.5 µM (inactive)
GI50 (SF-539): 40.3 µM (inactive)
GI50 (SK-MEL-28): 52.6 µM (inactive)
GI50 (SK-MEL-2): 20 µM (inactive)
GI50 (SK-MEL-5): 16 µM (inactive)
GI50 (SK-OV-3): > 100 µM (inactive)
GI50 (SN12C): 19.9 µM (inactive)
GI50 (SNB-19): 25.9 µM (inactive)
GI50 (SNB-75): 23.9 µM (inactive)
GI50 (SR): 33.3 µM (inactive)
GI50 (SW-620): 68.4 µM (inactive)
GI50 (U-251): 17.6 µM (inactive)
GI50 (UACC-257): 20 µM (inactive)
GI50 (UACC-62): 62.4 µM (inactive)
GI50 (UO-31): > 100 µM (inactive)
GI50 (XF498): 35.4 µM (inactive)
